# From patent US11376266B2, “Antitumor agent” (KEIO UNIVERSITY, priority 2016, dated 2022)
# Read-outs that look alike come from different tables or passages of the source.
# Key:
# T98G cell line = details: 0 to 1250 μM calculated as sulfasalazine, two days, FIG. 6
# Experimental: Using the same medium as in (3), the T98G cell line was seeded onto 96-well plates at 3,000 cells/well. On the next day, sulfasalazine and the type-A PEGylated sulfasalazines were added at 0 to 1250 μM calculated in concentrations of sulfasalazine. Two days later, cell viability was measured using a CellTiter-Glo (Promega).
# [1] = Solubility test in pure water and saline (UV absorption at 238 nm); format: physicochemical; details: thermodynamic from solid, room temperature, PEGylated values calculated as sulfasalazine
# Experimental: The aqueous solutions thus obtained were centrifuged at 8000 rpm for 30 minutes at room temperature, and 50 μL of each supernatant was taken. One microliter of 5N NaOH solution was added to the supernatant and UV absorption (at 238 nm) was measured for the resulting solution, thereby sulfasalazine concentration in the solution (solubility in pure water and saline) was calculated.
# [2] = tested on: human colon cancer HCT-116 cells; experiment: Antitumor effect of sulfasalazine in mice bearing subcutaneous HCT-116 tumors; format: in vivo, KSN nude mice; details: 250 mg/kg intraperitoneally once per day; Days 14 and 28 after transplantation; versus saline control; FIG. 1
# Experimental: The human colon cancer HCT-116 cells that proliferate in a CD44v-dependent manner were administered subcutaneously to KSN nude mice to form tumors. The cells were transplanted into 10 mice. 250 mg/kg of sulfasalazine or 100 μl of saline was injected to each of groups of 5 mice intraperitoneally once per day. Diameter of tumors was measured on Days 14 and 28 after transplantation and their weights were calculated based on the diameters and compared between the two groups.
compound,measurement,setting,value
O=C(O)c1cc(/N=N/c2ccc(S(=O)(=O)Nc3ccccn3)cc2)ccc1O [Sulfasalazine],"cell viability, concentration dependence (cytotoxicity)",T98G cell line,substantially identical concentration dependence
same,solubility,"[1]; pure water, water, read-out: Saturated solubility, pure water",50 µg/mL
same,solubility,"[1]; saline, saline or isotonic, read-out: Saturated solubility, saline",37 µg/mL
same,tumor growth (tumor weight calculated from diameter),[2],significantly slower
